Measurements reported in patent US20220347188A1, “PROMOTING TISSUE REGENERATION” (FRIEDRICH MIESCHER INSITUTE FOR BIOMEDICAL RESEARCH, priority 2019, published 2022).

Test system: intestinal organoids
Assay: intestinal organoids cultured from single cells, image-based phenotypic assay
Format: cell-based
Excerpt: The present inventors developed a novel image-based phenotypic screening platform in intestinal organoids cultured from single cells to generate a toolbox of compounds shaping the intestinal organoid phenotypic landscape. The compounds were used to infer functional genetic interactions and identify pathways impacting different steps of organoid development. The inventors focused on compounds that improve the regeneration potential of the intestinal epithelium and discovered a novel role for nuclear retinoic acid receptors during organoid damage response and homeostasis both in vitro and in vivo.
FIG. 1 RXR activity is indispensable for symmetry breaking and cell type balance maintenance Representative images of organoids cultured from single cells in indicated treatment conditions (left), composite maximum intensity projections of confocal z-stacks, nuclei, DAPI, antibody staining for Lysozyme and Aldolase B, scale bar, 50 μm. Violin plots showing distribution of mean Aldolase B staining intensity in control and treated organoids (top right). Box plots inside violin plots show quartile range, whiskers show value interval with excluded outliers, white dots indicate median values, n, number of individual organoids in respective conditions. DMSO, DMSO control, RXRi, 5 μM RXR antagonist. […]

Question: What does the source list for `CC1=C(/C=C/C(C)=C/C=C/C(C)=C/C(=O)O)C(C)(C)CCC1` [atRA, all-trans retinoic acid]?
Answer: ALDH1A1-positive as well as RARE-positive region (ALDH1A1 antibody staining and RARE reporter gene): expansion; absorptive enterocytes in organoids (organoids cultured in presence of an RXR agonist and atRA): increase in absorptive enterocytes
